Test results taken from US20090131481A1, “Transcription Factor Modulating Compounds and Methods of Use Thereof” (Paratek Pharmaceuticals, Inc., published 2009).

Experiments:
LcrF (VirF) = LcrF (VirF) (Yersinia pestis, UniProt P28808); experiment: biochemical; assay type: binding, Y. pseudotuberculosis; conditions: EC50 for inhibition of LcrF(VirF)-DNA binding
P. aeruginosa PA103 = experiment: Lethal P. aeruginosa pneumonia model in mice; assay type: in vivo; conditions: IP 25 mg/kg, 10^6 organisms intranasally, FIG. 5 and 6
ExsA [1] = molecular target: T1, ExsA (Pseudomonas aeruginosa, UniProt P26993); experiment: Chemiluminescence-based ExsA-DNA binding assay; parameters: species or system P. aeruginosa; conditions: Table 7, cell-free system; read-out: ExsA EC50
T1 construct: made in house
T1 sequence (P26993 1-278): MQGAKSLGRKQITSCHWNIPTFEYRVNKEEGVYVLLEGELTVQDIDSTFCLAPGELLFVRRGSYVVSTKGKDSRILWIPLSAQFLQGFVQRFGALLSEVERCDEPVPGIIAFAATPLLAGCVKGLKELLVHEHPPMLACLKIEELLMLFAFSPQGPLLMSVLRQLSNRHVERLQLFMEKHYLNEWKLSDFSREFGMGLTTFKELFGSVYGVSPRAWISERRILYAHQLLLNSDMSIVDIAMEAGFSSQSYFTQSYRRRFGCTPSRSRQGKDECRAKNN

ExsA [2] = molecular target: ExsA (Pseudomonas aeruginosa, UniProt P26993 P26993:1-278); experiment: LANCE TR-FRET; same buffer; basis of inhibitor screen; conditions: tags: 6xHis; label: N-term (5') biotin

LcrF (VirF), sequence (P28808 whole entry, looked up): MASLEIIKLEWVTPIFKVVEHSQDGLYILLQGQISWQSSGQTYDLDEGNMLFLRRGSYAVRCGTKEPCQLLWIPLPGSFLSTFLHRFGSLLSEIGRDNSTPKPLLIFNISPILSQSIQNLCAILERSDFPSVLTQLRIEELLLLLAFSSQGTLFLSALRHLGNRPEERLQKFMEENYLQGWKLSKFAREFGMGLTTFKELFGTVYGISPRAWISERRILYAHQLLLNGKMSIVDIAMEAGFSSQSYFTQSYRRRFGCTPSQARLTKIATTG

O=C(Nc1ccc(-c2nc3ccc([N+](=O)[O-])cc3n2O)cc1)c1ccc(-n2ccnc2)cc1 [I]
EC50 (LcrF (VirF)): < 10 µM | survival at 48 hours post infection (P. aeruginosa PA103): 50% | EC50 (ExsA [1]): 10 to 25 µM

B1: LANCE target DNA (SEQ ID NO. 1) (dsDNA)
DNA 1: CCGATTTAGCAAAACGTGGCATCGGTC
DNA 2: GACCGATGCCACGTTTTGCTAAATCGG
binding result (ExsA [2]): binds
